Measurements reported in the supplement of paper PMC11061612.

How the values were obtained:
Test in all cases: combination Emax (second highest fraction inhibited in the dose matrix, 72 h); higher = more inhibition; extreme values may be limits of the assay
[1] = tested on: ALL-PO (B-Lymphoblastic Leukemia)
Summary of the method: (§1)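 Cell lines grown in DMEM/F12 or RPMI with 10% FBS were plated in 1536-well plates and held 24 hours at 37°C, 5% CO2 before 72 hours of exposure to two-drug dose matrices, with DMSO typically at 0.2%. CellTiter-Glo 2.0 luminescence gave viability, which was converted to inhibition. Vehicle wells were set to 0 and blank wells to 1. Combination Emax is the second-highest inhibition in the matrix, and Bliss excess is the observed combination effect minus the expected EA + EB − EA·EB, where EA and EB are the single-agent effects.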

[2] = tested on: BE-13 (T-Lymphoblastic Leukemia)
Summary of the method: as §1

[3] = tested on: BFTC-909 (Kidney Carcinoma)
Summary of the method: as §1

BPH-1 (Non-Cancerous) = tested on: BPH-1 (Non-Cancerous)
Summary of the method: as §1

[4] = tested on: CAL-33 (Oral Cavity Carcinoma)
Summary of the method: as §1

GAMG (Glioblastoma) = tested on: GAMG (Glioblastoma)
Summary of the method: as §1

[5] = tested on: HH (T-Cell Non-Hodgkin's Lymphoma)
Summary of the method: as §1

[6] = tested on: HuH-7 (Hepatocellular Carcinoma)
Summary of the method: as §1

[7] = tested on: KMRC-20 (Kidney Carcinoma)
Summary of the method: as §1

KS-1 (Glioblastoma) = tested on: KS-1 (Glioblastoma)
Summary of the method: as §1

[8] = tested on: KYAE-1 (Esophageal Adenocarcinoma)
Summary of the method: as §1

LOXIMVI (Melanoma) = tested on: LOXIMVI (Melanoma)
Summary of the method: as §1

[9] = tested on: LS-123 (Colorectal Carcinoma)
Summary of the method: as §1

MPP-89 (Mesothelioma) = tested on: MPP-89 (Mesothelioma)
Summary of the method: as §1

[10] = tested on: NCI-H1568 (Lung Adenocarcinoma)
Summary of the method: as §1

[11] = tested on: OV-56 (Ovarian Carcinoma)
Summary of the method: as §1

[12] = tested on: SNU-449 (Hepatocellular Carcinoma)
Summary of the method: as §1

[13] = tested on: SW1710 (Bladder Carcinoma)
Summary of the method: as §1

[14] = tested on: WSU-NHL (B-Cell Non-Hodgkin's Lymphoma)
Summary of the method: as §1

[15] = tested on: YAPC (Pancreatic Carcinoma)
Summary of the method: as §1

For `CC(=O)Nc1cccc(-n2c(=O)n(C3CC3)c(=O)c3c(Nc4ccc(I)cc4F)n(C)c(=O)c(C)c32)c1` [Trametinib] + Cc1nc(-c2cn3c(n2)-c2ccc(-c4cnn(C(C)(C)C(N)=O)c4)cc2OCC3)n(C(C)C)n1 [Taselisib] (first compound max 1 µM, 7x7, partner max 10 µM), the “combination Emax” value [1] was 0.795, the “combination Emax” value [2] was 0.168 and the “combination Emax” value [3] was 0.781. For the same compound, the “combination Emax” value (BPH-1 (Non-Cancerous)) was 0.94, the “combination Emax” value [4] was 0.989 and the “combination Emax” value (GAMG (Glioblastoma)) was 0.783. For the same compound, the “combination Emax” value [5] was 0.524, the “combination Emax” value [6] was 0.977 and the “combination Emax” value [7] was 0.593. The “combination Emax” value (KS-1 (Glioblastoma)) was 0.832, the “combination Emax” value [8] was 0.893 and the “combination Emax” value (LOXIMVI (Melanoma)) was 1. For the same compound, the “combination Emax” value [9] was 0.885, the “combination Emax” value (MPP-89 (Mesothelioma)) was 0.796 and the “combination Emax” value [10] was 0.763. The “combination Emax” value [11] was 0.607, the “combination Emax” value [12] was 0.559 and the “combination Emax” value [13] was 0.532. The “combination Emax” value [14] was 0.76 and the “combination Emax” value [15] was 0.733.
